Laboratory results taken from patent US20040228866A1, “Suppressor genes” (Ludwig Institute for Cancer Research, priority 2000, published 2004).

System: Saos-2 cells
Assay: Apoptosis by flow cytometry (CD20-gated, sub-G1 DNA content) in transfected Saos-2 cells
Type: cell-based
Experimental: Apoptosis was identified by the expression of the co-transfected cell surface marker CD20, as described in Samuels-Lev et al. (Mol. Cell 8:781-94, 2001, herein incorporated by reference).
The number of apoptotic cells was determined using the methods described in Example 6.
Cells (10^6) were plated 24-48 hours prior to transfection in 10 cm plates. Cells were grown in DMEM supplemented with 10% FCS and transfected with 2 μg of a plasmid expressing CD20 as a transfection marker. Increasing amounts of ASPP1 and ASPP2 were transfected (7.5 μg, 15 μg and 25 μg). 36 hours after the transfection, both attached and floating cells were harvested and analysed using flow cytometry as follows. The transfected cells were gated based on the expression of CD20. The percentage of apoptotic cells was measured by the accumulation of cells with a sub-G1 DNA content derived from at least three individual experiments.
The transfected cells were analyzed by flow cytometry as described in Example 6.

Bcl-2: anti-apoptotic Bcl-2 oncoprotein
effect on the apoptotic function of wild type p53 (co-expressed with p53): decreased | effect on the enhancement of p53 apoptotic function by ASPP1 and ASPP2 (co-expressed with p53 and ASPP1 or ASPP2): effectively prevented ASPP1 and ASPP2 from enhancing the apoptotic function of p53 | effect on apoptosis induced by p53H175-L (transcriptionally inactive, mitochondria-targeted mutant p53, FIG. 9A): failed to decrease or inhibit apoptosis induced by p53H175-L
